In PMC5515969, “Effects of 31 FDA approved small-molecule kinase inhibitors on isolated rat liver mitochondria” (Archives of Toxicology, 2016):
Like-named read-outs stand apart in the source and are kept apart here.

Legend:
[1] = cited from earlier work
RCC II = target: T1, RCC II (Rattus norvegicus, UniProt P21913+Q641Z9+Q6PCT8+Q920L2); assay: RCC II activity in submitochondrial particles; assay type: biochemical; set-up: key: activity relative to DMSO-treated controls (control set as 1 = 100%); conditions: DMSO treated samples set as 1
T1 construct: Submitochondrial particles were prepared by subjecting the intact mitochondria to three successive freeze–thaw cycles; from tissue; host or cells: rat liver mitochondria, used as submitochondrial particles
T1 sequence (Q920L2 35-656): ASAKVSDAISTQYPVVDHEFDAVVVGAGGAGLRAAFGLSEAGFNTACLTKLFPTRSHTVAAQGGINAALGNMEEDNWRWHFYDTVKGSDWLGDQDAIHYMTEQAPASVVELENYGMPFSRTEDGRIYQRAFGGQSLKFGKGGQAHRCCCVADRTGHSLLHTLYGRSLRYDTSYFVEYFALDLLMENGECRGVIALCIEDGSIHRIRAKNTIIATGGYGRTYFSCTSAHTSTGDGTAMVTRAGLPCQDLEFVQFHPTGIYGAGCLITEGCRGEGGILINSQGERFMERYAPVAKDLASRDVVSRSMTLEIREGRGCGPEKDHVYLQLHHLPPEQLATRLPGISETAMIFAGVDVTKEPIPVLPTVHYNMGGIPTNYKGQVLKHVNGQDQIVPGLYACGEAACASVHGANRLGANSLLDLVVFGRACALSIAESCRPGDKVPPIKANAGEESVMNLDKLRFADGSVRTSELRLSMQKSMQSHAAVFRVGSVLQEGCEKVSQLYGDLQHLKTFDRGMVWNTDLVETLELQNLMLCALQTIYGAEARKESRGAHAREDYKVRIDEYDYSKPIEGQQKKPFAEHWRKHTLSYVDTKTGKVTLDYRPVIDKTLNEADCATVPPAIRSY
T1 sequence (P21913 31-282): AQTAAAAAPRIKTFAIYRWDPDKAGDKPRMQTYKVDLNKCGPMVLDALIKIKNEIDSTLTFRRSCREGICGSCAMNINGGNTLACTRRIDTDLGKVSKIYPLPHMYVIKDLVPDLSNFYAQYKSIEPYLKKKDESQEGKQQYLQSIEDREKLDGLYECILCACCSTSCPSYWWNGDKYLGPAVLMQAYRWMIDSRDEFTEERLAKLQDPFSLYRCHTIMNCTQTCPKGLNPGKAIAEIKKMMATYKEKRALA
T1 sequence (Q641Z9 1-169): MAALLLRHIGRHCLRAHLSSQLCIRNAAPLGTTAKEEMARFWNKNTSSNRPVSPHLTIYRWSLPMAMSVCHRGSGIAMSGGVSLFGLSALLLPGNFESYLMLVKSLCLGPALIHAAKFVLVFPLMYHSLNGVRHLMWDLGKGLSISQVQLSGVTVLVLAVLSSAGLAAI
T1 sequence (Q6PCT8 57-159): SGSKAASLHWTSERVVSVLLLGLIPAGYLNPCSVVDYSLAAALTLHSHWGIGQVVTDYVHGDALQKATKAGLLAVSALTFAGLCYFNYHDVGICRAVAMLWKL
Outline: (§1)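 Inhibitors preincubated 15 min with submitochondrial particles (1 mg/ml) before activity readout. RCC I (rotenone-sensitive fraction) and I/V: A340, and RCC II: A600, each every 1 min for 6 min; RCC III/IV: A550 every 10 s for 2 min. Activities relative to DMSO control set as 1.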

RCC I = RCC I activity in submitochondrial particles; assay type: biochemical, rat; set-up: key to RCC I at 10XCmax / RCC I at 100XCmax / RCC I at 50XCmax / RCC I at 30XCmax / RCC I at 20XCmax: activity relative to DMSO-treated controls (control set as 1 = 100%); conditions: 10XCmax; DMSO treated samples set as 1
Outline: as §1

[2] = tested on: isolated rat liver mitochondria; assay: Mitochondrial swelling (absorbance at 535 nm); assay type: biochemical; conditions: difference in signal between KI and DMSO treated samples at the end of experiments; as to Swelling 5XCmax: key: 0 indicates that the drug had no effects (negative)
[3] = tested on: isolated rat liver mitochondria; conditions: positive control alamethicin treated samples
[4] = tested on: isolated rat liver mitochondria; assay: Mitochondrial oxygen consumption (glutamate/malate or succinate driven, state 4 and state 3); assay type: biochemical; conditions: for Glutamate/malate driven respiration State 3 / Glutamate/malate driven respiration State 4 / Succinate-driven respiration State 3 / Succinate-driven respiration State 4: oxygen consumption, DMSO-treated = 1; for lowest concentration significantly affecting mitochondrial oxygen consumption: tested at 1 to 100-fold Cmax; as to State 3 respiration driven by succinate at 10XCmax: key: 0 indicates that the drug had no effects (negative); as to State 3 respiration driven by succinate at 1XCmax: key: 0 indicates that the drug had no effects (negative)
Outline: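 Rat liver mitochondria (1 mg/ml protein) exposed 5 min to kinase inhibitors in 0.1% DMSO, then O2 consumption measured by Clark-type electrode with glutamate/malate or succinate (state 4), ADP added after 3 min (state 3). Rates normalized to 0.1% DMSO controls set to 1.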

RCC IV = RCC IV activity in submitochondrial particles; assay type: biochemical, rat; set-up: key to RCC IV at 50XCmax / RCC IV at 100XCmax: activity relative to DMSO-treated controls (control set as 1 = 100%); conditions: 50XCmax; DMSO treated samples set as 1; in %
Outline: as §1

RCC V = RCC V activity in submitochondrial particles; assay type: biochemical, rat; conditions: DMSO treated samples set as 1; as to RCC V at 5XCmax: key: 0 indicates that the drug had no effects (negative)
Outline: as §1

[5] = tested on: isolated rat liver mitochondria; assay: Mitochondrial inner membrane potential (MMP), Rhodamine 123; assay type: biochemical; conditions: difference in signal between KI and DMSO treated samples at the end of experiments
Excerpt: Fig. 3 KI effects on mitochondrial inner membrane potential (MMP). […] In a, c, data are means and standard derivations from three separate experiments. *p < 0.05 as compared to DMSO-treated samples at the end of experiments. In b, data are means of two independent experiments

[6] = human therapeutic Cmax at FDA recommended dosages, ref product labeling and drug approval packages at the official FDA website
[7] = human therapeutic maximal blood concentration, ref product labeling
[8] = read-out: Cmax at µM, human therapeutic maximal blood concentration, ref product labeling
[9] = 30XCmax, DMSO treated samples set as 1

SMILES: CC[C@H](Nc1ncnc2[nH]cnc12)c1nc2cccc(F)c2c(=O)n1-c1ccccc1 [Idelalisib]
- Cmax [1, 6]: 4.64 µM
- Cmax (ng or µg/ml) [1, 7]: 1.927 µg/mL
- Cmax [1, 8]: 4.64 µM
- RCC II at 1.0XCmax (RCC II): 0
- RCC II at 2.5XCmax (RCC II): 0
- RCC II at 5XCmax (RCC II): 0
- RCC II at 10XCmax (RCC II): 0
- RCC II at 20XCmax (RCC II): 0
- RCC II at 30XCmax (RCC II): 0
- RCC II at 50XCmax (RCC II): 0
- RCC II at 100XCmax (RCC II): 0
- RCC I at 10XCmax (RCC I): 0
- Swelling 1XCmax [2]: 0
- Swelling 2.5XCmax [2]: 0
- Swelling 5XCmax [2]: 0
- Swelling 10XCmax [2]: 0
- Swelling 20XCmax [2]: 0
- Swelling 30XCmax [2]: 0
- Swelling 50XCmax [2]: 0
- Swelling 100XCmax [2]: 0
- Cytochrome c release 1XCmax [3]: 0
- Cytochrome c release 2.5XCmax [3]: 0
- Cytochrome c release 5XCmax [3]: 0
- Cytochrome c release 10XCmax [3]: 0
- Cytochrome c release 20XCmax [3]: 0
- Cytochrome c release 30XCmax [3]: 0
- Cytochrome c release 50XCmax [3]: 0
- Cytochrome c release 100XCmax [3]: 0
- State 3 respiration driven by succinate at 1XCmax ([4]; DMSO treated samples set as 1): 0
- State 4 respiration driven by succinate at 1XCmax ([4]; DMSO treated samples set as 1): 0
- State 3 respiration driven by succinate at 2.5XCmax ([4]; DMSO treated samples set as 1): 0
- State 4 respiration driven by succinate at 2.5XCmax ([4]; DMSO treated samples set as 1): 0
- State 3 respiration driven by succinate at 5XCmax ([4]; DMSO treated samples set as 1): 0
- State 4 respiration driven by succinate at 5XCmax ([4]; DMSO treated samples set as 1): 0
- State 3 respiration driven by succinate at 10XCmax ([4]; DMSO treated samples set as 1): 0
- State 4 respiration driven by succinate at 10XCmax ([4]; DMSO treated samples set as 1): 0
- State 3 respiration driven by succinate at 20XCmax ([4]; DMSO treated samples set as 1): 0
- State 4 respiration driven by succinate at 20XCmax ([4]; DMSO treated samples set as 1): 0
- State 3 respiration driven by succinate at 30XCmax [4, 9]: 0
- State 4 respiration driven by succinate at 30XCmax [4, 9]: 0
- Glutamate/malate driven respiration State 3 ([4]; 50-fold Cmax): 0.76 ± 0.04
- Glutamate/malate driven respiration State 4 ([4]; 50-fold Cmax): 1.00 ± 0.08
- Succinate-driven respiration State 3 ([4]; 50-fold Cmax): 0.83 ± 0.06
- Succinate-driven respiration State 4 ([4]; 50-fold Cmax): 0.97 ± 0.04
- State 3 respiration driven by glutamate/malate at 50XCmax ([4]; DMSO treated samples set as 1): 0.76±0.04
- State 3 respiration driven by succinate at 50XCmax ([4]; DMSO treated samples set as 1): 0
- State 4 respiration driven by succinate at 50XCmax ([4]; DMSO treated samples set as 1): 0
- Glutamate/malate driven respiration State 3 ([4]; 100-fold Cmax): 0.66 ± 0.03
- Glutamate/malate driven respiration State 4 ([4]; 100-fold Cmax): 1.13 ± 0.05
- Succinate-driven respiration State 3 ([4]; 100-fold Cmax): 0.65 ± 0.03
- Succinate-driven respiration State 4 ([4]; 100-fold Cmax): 1.05 ± 0.01
- State 3 respiration driven by glutamate/malate at 100XCmax ([4]; DMSO treated samples set as 1): 0.66±0.03
- State 3 respiration driven by succinate at 100XCmax ([4]; DMSO treated samples set as 1): 0.65±0.03
- State 4 respiration driven by succinate at 100XCmax ([4]; DMSO treated samples set as 1): 0
- lowest concentration significantly affecting mitochondrial oxygen consumption [4]: 50 fold Cmax
- RCC IV at 50XCmax (RCC IV): 0
- RCC V at 5XCmax (RCC V): 0
- RCC V at 50XCmax (RCC V): 0
- MMP measured by Rhodamine 123 at 1XCmax [5]: 0
- MMP measured by Rhodamine 123 at 2.5XCmax [5]: 0
- MMP measured by Rhodamine 123 at 5XCmax [5]: 0
- MMP measured by Rhodamine 123 at 10XCmax [5]: 0
- MMP measured by Rhodamine 123 at 20XCmax [5]: 0
- MMP measured by Rhodamine 123 at 30XCmax [5]: 0
- MMP measured by Rhodamine 123 at 50XCmax [5]: 0
- MMP measured by Rhodamine 123 at 100XCmax [5]: 0

SMILES: COc1cc2nccc(Oc3ccc(NC(=O)NC4CC4)c(Cl)c3)c2cc1C(N)=O [Lenvatinib]
- Cmax [1, 6]: 0.68 µM
- Cmax (ng or µg/ml) [1, 7]: 0.291 µg/mL
- Cmax [1, 8]: 0.68 µM
- RCC II at 1.0XCmax (RCC II): 0
- RCC II at 2.5XCmax (RCC II): 0
- RCC II at 5XCmax (RCC II): 0
- RCC II at 10XCmax (RCC II): 0
- RCC II at 20XCmax (RCC II): 0
- RCC II at 30XCmax (RCC II): 0
- RCC II at 50XCmax (RCC II): 0
- RCC II at 100XCmax (RCC II): 0
- RCC I at 10XCmax (RCC I): 0
- Swelling 1XCmax [2]: 0
- Swelling 2.5XCmax [2]: 0
- Swelling 5XCmax [2]: 0
- Swelling 10XCmax [2]: 0
- Swelling 20XCmax [2]: 0
- Swelling 30XCmax [2]: 0
- Swelling 50XCmax [2]: 0
- Swelling 100XCmax [2]: 0
- Cytochrome c release 1XCmax [3]: 0
- Cytochrome c release 2.5XCmax [3]: 0
- Cytochrome c release 5XCmax [3]: 0
- Cytochrome c release 10XCmax [3]: 0
- Cytochrome c release 20XCmax [3]: 0
- Cytochrome c release 30XCmax [3]: 0
- Cytochrome c release 50XCmax [3]: 0
- Cytochrome c release 100XCmax [3]: 0
- State 3 respiration driven by succinate at 1XCmax ([4]; DMSO treated samples set as 1): 0
- State 4 respiration driven by succinate at 1XCmax ([4]; DMSO treated samples set as 1): 0
- State 3 respiration driven by succinate at 2.5XCmax ([4]; DMSO treated samples set as 1): 0
- State 4 respiration driven by succinate at 2.5XCmax ([4]; DMSO treated samples set as 1): 0
- State 3 respiration driven by succinate at 5XCmax ([4]; DMSO treated samples set as 1): 0
- State 4 respiration driven by succinate at 5XCmax ([4]; DMSO treated samples set as 1): 0
- State 3 respiration driven by succinate at 10XCmax ([4]; DMSO treated samples set as 1): 0
- State 4 respiration driven by succinate at 10XCmax ([4]; DMSO treated samples set as 1): 0
- State 3 respiration driven by succinate at 20XCmax ([4]; DMSO treated samples set as 1): 0
- State 4 respiration driven by succinate at 20XCmax ([4]; DMSO treated samples set as 1): 0
- Glutamate/malate driven respiration State 3 ([4]; 30-fold Cmax): 0.76 ± 0.05
- Glutamate/malate driven respiration State 4 ([4]; 30-fold Cmax): 0.95 ± 0.06
- Succinate-driven respiration State 3 ([4]; 30-fold Cmax): 0.86 ± 0.04
- Succinate-driven respiration State 4 ([4]; 30-fold Cmax): 0.94 ± 0.01
- State 3 respiration driven by glutamate/malate at 30XCmax [4, 9]: 0.76±0.05
- State 3 respiration driven by succinate at 30XCmax [4, 9]: 0
- State 4 respiration driven by succinate at 30XCmax [4, 9]: 0
- Glutamate/malate driven respiration State 3 ([4]; 50-fold Cmax): 0.70 ± 0.02
- Glutamate/malate driven respiration State 4 ([4]; 50-fold Cmax): 0.93 ± 0.01
- Succinate-driven respiration State 3 ([4]; 50-fold Cmax): 0.90 ± 0.01
- Succinate-driven respiration State 4 ([4]; 50-fold Cmax): 0.96 ± 0.03
- State 3 respiration driven by glutamate/malate at 50XCmax ([4]; DMSO treated samples set as 1): 0.70±0.02
- State 3 respiration driven by succinate at 50XCmax ([4]; DMSO treated samples set as 1): 0
- State 4 respiration driven by succinate at 50XCmax ([4]; DMSO treated samples set as 1): 0
- Glutamate/malate driven respiration State 3 ([4]; 100-fold Cmax): 0.74 ± 0.04
- Glutamate/malate driven respiration State 4 ([4]; 100-fold Cmax): 1.06 ± 0.06
- Succinate-driven respiration State 3 ([4]; 100-fold Cmax): 0.99 ± 0.03
- Succinate-driven respiration State 4 ([4]; 100-fold Cmax): 1.07 ± 0.03
- State 3 respiration driven by glutamate/malate at 100XCmax ([4]; DMSO treated samples set as 1): 0.74±0.04
- State 3 respiration driven by succinate at 100XCmax ([4]; DMSO treated samples set as 1): 0
- State 4 respiration driven by succinate at 100XCmax ([4]; DMSO treated samples set as 1): 0
- lowest concentration significantly affecting mitochondrial oxygen consumption [4]: 30 fold Cmax
- RCC IV at 50XCmax (RCC IV): 0
- RCC V at 5XCmax (RCC V): 0
- RCC V at 50XCmax (RCC V): 0
- MMP measured by Rhodamine 123 at 1XCmax [5]: 0
- MMP measured by Rhodamine 123 at 2.5XCmax [5]: 0
- MMP measured by Rhodamine 123 at 5XCmax [5]: 0
- MMP measured by Rhodamine 123 at 10XCmax [5]: 0
- MMP measured by Rhodamine 123 at 20XCmax [5]: 0
- MMP measured by Rhodamine 123 at 30XCmax [5]: 0
- MMP measured by Rhodamine 123 at 50XCmax [5]: 0
- MMP measured by Rhodamine 123 at 100XCmax [5]: 0
